How the values were obtained:
[1] = system: HTC-C3 (Thyroid Gland Carcinoma); test: Bliss excess, mean over the matrix (fraction); higher = more synergy
Summary of the method: (§1)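 Cell lines in DMEM/F12 or RPMI with 10% FBS were plated in 1536-well plates, held 24 hours at 37°C, 5% CO2, then given two-drug dose matrices for 72 hours (DMSO typically 0.2%). Viability was read by CellTiter-Glo 2.0 luminescence and scaled as inhibition from 0 (vehicle wells) to 1 (blank wells). Combination Emax is the second-highest inhibition in the matrix; Bliss excess is observed combination effect minus expected EA + EB − EA·EB, EA and EB being single-agent effects.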

[2] = system: SJRH30 (Rhabdomyosarcoma); test: as above
Summary of the method: as §1

CHL-1 (Melanoma) = test: as above
Summary of the method: as §1

[3] = system: JHH-1 (Hepatocellular Carcinoma); test: as above
Summary of the method: as §1

[4] = system: OVTOKO (Ovarian Carcinoma); test: as above
Summary of the method: as §1

[5] = system: Caov-3 (Ovarian Carcinoma); test: as above
Summary of the method: as §1

[6] = system: AN3-CA (Endometrial Carcinoma); test: as above
Summary of the method: as §1

ES-2 (Ovarian Carcinoma) = test: as above
Summary of the method: as §1

[7] = system: OCI-AML5 (Acute Myeloid Leukemia); test: as above
Summary of the method: as §1

[8] = system: SNU-175 (Colorectal Carcinoma); test: as above
Summary of the method: as §1

[9] = system: SW684 (Other Solid Carcinomas); test: as above
Summary of the method: as §1

[10] = system: PANC-02-03 (Pancreatic Carcinoma); test: as above
Summary of the method: as §1

[11] = system: RMG-I (Ovarian Carcinoma); test: as above
Summary of the method: as §1

[12] = system: CML-T1 (Chronic Myelogenous Leukemia); test: as above
Summary of the method: as §1

[13] = system: COLO-684 (Endometrial Carcinoma); test: as above
Summary of the method: as §1

[14] = system: OV-90 (Ovarian Carcinoma); test: as above
Summary of the method: as §1

[15] = system: NKM-1 (Acute Myeloid Leukemia); test: as above
Summary of the method: as §1

[16] = system: EB-3 (Burkitt's Lymphoma); test: as above
Summary of the method: as §1

[17] = system: LAMA-84 (Chronic Myelogenous Leukemia); test: combination Emax (second highest fraction inhibited in the dose matrix, 72 h); higher = more inhibition; extreme values may be limits of the assay
Summary of the method: as §1

[18] = system: NCI-H1155 (Non-Small Cell Lung Carcinoma); test: as above
Summary of the method: as §1
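Wherever Bliss excess, mean over the matrix is given: after 72 h of two-drug dosing.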

Structure (SMILES)	Bliss excess [1]	Bliss excess [2]	Bliss excess (CHL-1 (Melanoma))	Bliss excess [3]	Bliss excess [4]	Bliss excess [5]	Bliss excess [6]	Bliss excess (ES-2 (Ovarian Carcinoma))	Bliss excess [7]	Bliss excess [8]	Bliss excess [9]	Bliss excess [10]	Bliss excess [11]	Bliss excess [12]	Bliss excess [13]	Bliss excess [14]	Bliss excess [15]	Bliss excess [16]	combination Emax [17]	combination Emax [18]
Cc1cc2ncnn2cc1Nc1ncc2c(n1)n(C1CCOCC1)c(=O)n2C [AZD7648] + CN(C)CCCOc1ccc(-c2ccc3ncc4c(c3c2)n(C2CCOCC2)c(=O)n4C)cn1 [AZD0156] (first compound max 10 µM, 7x7, partner max 1 µM)	0.0024	0.0105	0.0169	0.0063	-0.0537	-0.0085	-0.0224	0.029	0.0276	-0.0021	-0.056	0.0002	-0.0322	-0.0092	-0.0324	-0.0374	-0.0039	-0.0867	0.202	0.319
Cc1cc2ncnn2cc1Nc1ncc2c(n1)n(C1CCOCC1)c(=O)n2C [AZD7648] + C[C@@H]1COCCN1C2=NC(=NC(=C2)C3(CC3)[S@](=N)(=O)C)C4=C5C=CNC5=NC=C4 [AZD6738] (first compound max 10 µM, 7x7, partner max 10 µM)	0.0229	0.0113	0.0093	0.0354	0.0118	0.0433	0.0515	0.0572	-0.0209	-0.0374	-0.0272	0.0561	0.0557	-0.0465	-0.0527	-0.0156	-0.0051	-0.0278	0.947	0.746
Cc1cc2ncnn2cc1Nc1ncc2c(n1)n(C1CCOCC1)c(=O)n2C [AZD7648] + O=C(c1cc(Cc2n[nH]c(=O)c3ccccc23)ccc1F)N1CCN(C(=O)C2CC2)CC1 [Olaparib] (first compound max 10 µM, 7x7, partner max 10 µM)	-0.0224	-0.0148	-0.0266	-0.0621	-0.0433	-0.0336	-0.0738	-0.0354	0.0077	-0.025	-0.0452	-0.0411	-0.0685	-0.0483	-0.0054	-0.0419	0.0104	-0.0401	0.17	0.293
COc1cccc2c1C(=O)c1c(O)c3c(c(O)c1C2=O)C[C@@](O)(C(=O)CO)C[C@@H]3O[C@H]1C[C@H](N)[C@H](O)[C@H](C)O1 [Doxorubicin] + Cc1cc2ncnn2cc1Nc1ncc2c(n1)n(C1CCOCC1)c(=O)n2C [AZD7648] (first compound max 1 µM, 7x7, partner max 10 µM)	0.0263	0.122	0.002	-0.0314	-0.0578	0.024	-0.0534	0.076	0.174	0.0265	-0.0211	0.0001	-0.0445	0.0824	-0.003	0.0011	0.0803	-0.0391	0.822	0.916
COc1cccc(OCCCN)c1-c1cc(Nc2cnc(C#N)cn2)n[nH]1 [Prexasertib] + C=CCn1c(=O)c2cnc(Nc3ccc(N4CCN(C)CC4)cc3)nc2n1-c1cccc(C(C)(C)O)n1 [AZD1775] (first compound max 1 µM, partner max 1 µM)	0.145	0.108	0.0485	0.0105	-0.0519	-0.0546	0.0766	0.0006	0.063	0.0595	0.0798	0.0504	0.0265	0.189	-0.0042	-0.0477	0.056	0.0312	0.992	0.963
COc1cccc(OCCCN)c1-c1cc(Nc2cnc(C#N)cn2)n[nH]1 [Prexasertib] + CCc1c2c(nc3ccc(O)cc13)-c1cc3c(c(=O)n1C2)COC(=O)[C@]3(O)CC [SN-38] (first compound max 1 µM, 7x7, partner max 0.3 µM)	0.0844	0.012	0.0254	-0.11	-0.0192	-0.0539	0.0972	-0.0222	-0.0197	-0.0298	0.0036	0.0098	-0.102	0.0077	0.0379	-0.0591	-0.0554	-0.0404	1	0.993
COc1cccc(OCCCN)c1-c1cc(Nc2cnc(C#N)cn2)n[nH]1 [Prexasertib] + CN(C)CCCOc1ccc(-c2ccc3ncc4c(c3c2)n(C2CCOCC2)c(=O)n4C)cn1 [AZD0156] (first compound max 1 µM, 7x7, partner max 1 µM)	-0.029	-0.0242	0.0059	0.0785	0.0594	-0.0134	-0.0442	0.0072	0.0781	0.0462	-0.0432	-0.0009	-0.04	-0.0328	-0.0172	-0.035	-0.0165	0.0498	0.988	0.885
COc1cccc(OCCCN)c1-c1cc(Nc2cnc(C#N)cn2)n[nH]1 [Prexasertib] + C[C@@H]1COCCN1C2=NC(=NC(=C2)C3(CC3)[S@](=N)(=O)C)C4=C5C=CNC5=NC=C4 [AZD6738] (first compound max 1 µM, 7x7, partner max 10 µM)	-0.0034	-0.0192	0.0139	0.0009	0.0006	-0.0647	-0.0308	-0.0375	-0.0205	0.0641	-0.018	0.0434	0.0108	-0.0309	-0.0733	-0.0275	-0.0583	-0.0598	0.99	0.93
COc1cccc(OCCCN)c1-c1cc(Nc2cnc(C#N)cn2)n[nH]1 [Prexasertib] + Cc1cc2ncnn2cc1Nc1ncc2c(n1)n(C1CCOCC1)c(=O)n2C [AZD7648] (first compound max 1 µM, 7x7, partner max 10 µM)	-0.018	-0.0311	-0.0122	0.0093	-0.0079	-0.0376	-0.0393	-0.0357	0.0718	0.0311	-0.0408	-0.0019	-0.0235	-0.0175	-0.0547	0.0252	-0.0271	-0.0106	0.99	0.92
COc1cccc(OCCCN)c1-c1cc(Nc2cnc(C#N)cn2)n[nH]1 [Prexasertib] + O=C(c1cc(Cc2n[nH]c(=O)c3ccccc23)ccc1F)N1CCN(C(=O)C2CC2)CC1 [Olaparib] (first compound max 1 µM, 7x7, partner max 10 µM)	-0.0615	-0.104	-0.051	-0.0416	-0.035	-0.0138	-0.0523	-0.102	-0.045	0.0762	-0.0742	-0.0932	-0.124	-0.03	-0.128	-0.0191	-0.0706	-0.195	0.973	0.927
COc1cc2c(cc1OCCCCCOc1cc3c(cc1OC)C(=O)N1C=C(C)C[C@H]1C=N3)N=C[C@@H]1CC(C)=CN1C2=O [SG3199] + O=C(c1cc(Cc2n[nH]c(=O)c3ccccc23)ccc1F)N1CCN(C(=O)C2CC2)CC1 [Olaparib] (first compound max 0.001 µM, 7x7, partner max 10 µM)	-0.013	0.0009	-0.0227	-0.0059	-0.0476	-0.0475	-0.0292	-0.045	0.0232	-0.0317	-0.056	-0.0487	-0.0599	-0.006	-0.0286	-0.0422	-0.0362	-0.0509	0.226	0.263
CCc1c2c(nc3ccc(O)cc13)-c1cc3c(c(=O)n1C2)COC(=O)[C@]3(O)CC [SN-38] + CN(C)CCCOc1ccc(-c2ccc3ncc4c(c3c2)n(C2CCOCC2)c(=O)n4C)cn1 [AZD0156] (first compound max 0.3 µM, 7x7, partner max 1 µM)	0.105	0.0722	0.0336	-0.018	-0.0523	0.0175	-0.0446	0.0144	-0.0231	0.0229	-0.0457	-0.007	0.018	0.0241	-0.0265	-0.012	0.033	-0.0659	0.94	0.962
CC(=O)Nc1cccc(-n2c(=O)n(C3CC3)c(=O)c3c(Nc4ccc(I)cc4F)n(C)c(=O)c(C)c32)c1 [Trametinib] + Cc1nc(-c2cn3c(n2)-c2ccc(-c4cnn(C(C)(C)C(N)=O)c4)cc2OCC3)n(C(C)C)n1 [Taselisib] (first compound max 1 µM, 7x7, partner max 10 µM)	0.113	0.076	0.171	0.0177	0.0659	0.0289	0.0575	0.0915	0.194	0.0779	0.161	0.179	-0.0099	0.0426	-0.0034	0.0922	0.255	0.0489	1	0.348
CC1(C)CCC(CN2CCN(c3ccc(C(=O)NS(=O)(=O)c4ccc(NCC5CCOCC5)c([N+](=O)[O-])c4)c(Oc4cnc5[nH]ccc5c4)c3)CC2)=C(c2ccc(Cl)cc2)C1 [Venetoclax] + C1CN(CCC1(C(=O)N[C@@H](CCO)C2=CC=C(C=C2)Cl)N)C3=NC=NC4=C3C=CN4 [Capivasertib] (first compound max 1 µM, 7x7, partner max 3 µM)	-0.0418	-0.0008	-0.0266	-0.0721	-0.0546	-0.0458	0.0482	-0.0389	-0.0057	-0.06	-0.0688	-0.0742	-0.0823	-0.0342	-0.0821	-0.0796	0.0228	-0.0683	0.371	0.289
CC1(C)CCC(CN2CCN(c3ccc(C(=O)NS(=O)(=O)c4ccc(NCC5CCOCC5)c([N+](=O)[O-])c4)c(Oc4cnc5[nH]ccc5c4)c3)CC2)=C(c2ccc(Cl)cc2)C1 [Venetoclax] + C=CCn1c(=O)c2cnc(Nc3ccc(N4CCN(C)CC4)cc3)nc2n1-c1cccc(C(C)(C)O)n1 [AZD1775] (first compound max 1 µM, partner max 1 µM)	-0.065	-0.045	0.0577	0.0213	-0.0903	0.0265	-0.0253	-0.0297	-0.0397	-0.0735	0.032	-0.0699	-0.0409	0.0106	-0.0644	-0.0168	-0.0087	-0.0193	0.964	0.223

Source: the supplement of paper PMC11061612
